Reference: patent US8633177B2, “Nitroxyl (HNO) releasing compounds and uses thereof in treating diseases” (The United States of America, as represented by the …, priority 2010, dated 2014)
Where two headings read alike, the source gives them in different places. Blank lines part the entries; values can stand above or below the compound they belong to.

Experiments:
porcine liver esterase = assay: Esterase-catalyzed hydrolysis followed by UV spectrophotometry; format: in vitro ADME; details: pH 7.4
Procedure: FIGS. 4A-C are graphs illustrating spontaneous hydrolysis (FIGS. 4A and 4B) and esterase-catalyzed hydrolysis (FIG. 4C) of 2 in an embodiment of the invention. In FIG. 4A, spectra were collected every 60 s (10-min intervals shown) after dissolving 2 in PBS (pH 7.4) at 37° C., and only loss of the parent compound was observed. In FIG. 4B, the pH was elevated to 12, and scans were collected every 0.5 s (through 2.5 s and 3.5, 5.5, 9.5, and 54.5 shown). In FIG. 4C, porcine liver esterase (20 μL in 3 mL) was added (pH 7.4), and spectra were collected every 10 s. Hydrolysis of 2 (λmax 236 nm) to 1 (λmax 250 nm) was complete within 40 s (0.067 s^−1) under these conditions. […] Elevation of the intensity near 200 nm indicated formation of autoxidation products such as nitrite. Deaeration inhibited this peak (data not shown).
(§1) The rate constants of decomposition were measured spectrophotometrically by monitoring the decrease in absorbance of peaks at ˜240-250 nm characteristic of the diazeniumdiolate functionality. The hydrolysis medium consisted of the metal chelator diethylenetriaminepentaacetic acid (DTPA, 50 μM) in calcium- and magnesium-free Dulbecco's phosphate-buffered saline (PBS, pH 7.4). UV-visible spectroscopy was performed with a Hewlett-Packard 8453 diode-array spectrophotometer equipped with Agilent 89090A thermostat set to 37° C. The spectrophotometer was blanked after warming the cuvette containing buffer at the appropriate pH in the instrument heat block for 5 min. For esterase-containing reactions, porcine liver esterase (20 μL; Sigma; suspension in 3.2 M (NH4)2SO4, pH 8) was added to the reaction buffer before blanking. Upon addition of IPA/NO (1) or AcOM-IPA/NO (2) (≦10 μL of stock), the cuvette was capped and inverted to mix. Spectra were collected at 0.5- to 60-s intervals for time periods of 2-120 min or until A∞<0.05. Kinetic analysis was performed by fitting the data to an exponential decay (A=ΔAe^−kt+A∞) using KaleidaGraph v.3.1.

[1] = Spontaneous decomposition kinetics by UV spectrophotometry in PBS; format: physicochemical
Procedure: as §1
To gain insight into the mechanistic origins of this unexpected finding, the pH/rate profiles of the diazeniumdiolates 1 and 2 were explored. As previously established and shown in FIG. 3A, hydrolysis of 1 slowed as the pH was increased from 3 to 10, with a small increase in rate thereafter. This was the opposite of the results with 2, whose hydrolysis rate was essentially first order in hydroxide ion concentration between pH 5 and 11 (FIG. 3B).

COX-2 mRNA = assay: COX mRNA levels; format: cell-based; details: Control 1.0
Source text: PGE2 levels are a direct measure of COX-2 activity. […] Increased COX-2 expression in the presence of aspirin has been reported previously (Davies et al., Alimentary Pharm. & Ther. 11(6):1101-08 (1997))). Both DEA/NO and DEA/NO-aspirin seem to augment the effect of aspirin while IPA/NO and IPA/NO-aspirin nullifies the effect and brings it back to the control level (Table 3).

[2] = Hydrolysis at pH 11 followed by NMR; format: physicochemical
Procedure: Organic products of the hydrolysis of 1 and 2 were quantified by integrating their NMR spectra. For pH 7.4, 3.9 mM solutions in 0.1 M phosphate buffer were employed. For pH 11, 4.9 mM solutions of 1 and 2 in 50 mM sodium carbonate were studied. Samples were run on a Varian Inova 400 MHz NMR with a Dell Precision 390 workstation. The samples were run at 37° C. and water suppression was achieved by using the preset pulse sequence. Peaks were identified by comparison with authentic standards.

[3] = NO quantified by chemiluminescence during hydrolysis; format: physicochemical; details: neutral pH
Procedure: In addition to HNO measurements as described above by reductive nitrosylation of metmyoglobin, NO was quantified by chemiluminescence assay, N2O by gas chromatography, and nitrite ion by the Griess assay.
Detection of HNO was also carried out using the chemiluminescence method in, 1 mM ferricyanide solution.

ventricular myocytes = assay: Sarcomere shortening in isolated ventricular myocytes; format: cell-based, C57BL/6 male mice; details: 3 μM
Procedure: A stock solution of 2 in DMSO was freshly prepared prior to each experiment and stored on ice protected from the light. Liberase blendzyme 3 was purchased from Roche Diagnostics (Mannheim) while CaCl2, DMSO, and glucose were purchased from Merck (Darmstadt). Calcium-free perfusion buffer contained 113 mM NaCl, 4.7 mM KCl, 0.6 mM KH2PO4, 0.6 mM Na2HPO4, 1.2 mM MgSO4, 12 mM NaHCO3, 10 mM KHCO3, 30 mM taurine, 5.5 mM glucose, 10 mM 2,3-butanedione monoxime, and 10 mM 4-(2-hydroxyethyl)-1-piperazineethanesulfonic acid (HEPES) at pH 7.4. Digestion buffer contained an additional 0.1 mg/mL of recombinant collagenases/proteases (Liberase blendzyme 3) and 12.5 μM CaCl2. IonOptix solution for the sarcomere shortening measurements contained 135 mM NaCl, 4.7 mM KCl, 0.6 mM KH2PO4, 0.6 mM Na2HPO4, 1.2 mM MgSO4, 1.25 mM CaCl2, 20 mM glucose, and 10 mM HEPES at pH 7.46.
C57BL/6 male mice (13-15 weeks) were used in the present study. Ventricular myocytes were isolated from wild type hearts using a modified protocol of O'Connell et al., (AfCS Research Reports, 1(5): 1-9 (2003)). […] After further centrifugation, ionOptix buffer was added on the pellet and sarcomere shortening was assessed on field stimulation (1 Hz with 4-ms duration, 10 V) using a video-based sarcomere length detection system (IonOptix Corporation) at room temperature.

[4] = system: MB-231 breast cancer cell lines
Procedure: (§2) Intracellular NO/HNO release from the derivatized NSAIDs was determined using 4-amino-5-methylamino-2′,7′-difluorofluoroescein diacetate (DAF-FM diacetate) as in Example 9.

[5] = system: MB-231 breast cancer cell lines; assay: DAF assay of cell membrane penetration, MB-231; details: MB-231 cell line
Procedure: as §2

[6] = porcine liver esterase 20 μL in 3 mL

rate of decay of 1 (porcine liver esterase; FIG. 4C, esterase present): 0.0033 s⁻¹ | rate of decay of 1 ([1]; FIG. 3A, PBS with 50 μM DTPA, 37° C.): 0.0012 s⁻¹ | hydrolysis rate relative to 2 ([1]; pH 11, more slowly than 2): 100 fold | hydrolysis at pH 11 ([2]; pH 11): hydrolyzed slowly | species produced on spontaneous hydrolysis [3]: produced both NO and HNO
Structure (SMILES): CC(C)N[N+]([O-])=N[O-].[Na+] [Compound 1, sodium 1-(N-isopropylamino)diazen-1-ium-1,2-diolate, reference compound]
COX-2 mRNA level relative to control (COX-2 mRNA): 1.2

cell membrane penetration [4]: penetrated cell membranes
Structure (SMILES): COc1ccc2c(c1)c(CC(=O)OCON=[N+]([O-])NC(C)C)c(C)n2C(=O)c1ccc(Cl)cc1 [IPA/NO-indomethacin, O^2-(methyl2-(1-(4-chlorobenzoyl)-5-methoxy-2-methyl-1H-indol-3-yl)acetate)-1-(N-isopropylamino)-diazen-1-ium-1,2-diolate]

More lines, now with the values behind:

Structure (SMILES): CC(=O)OCO/N=[N+](\[O-])NC(C)C [Compound 2, O^2-(acetoxymethyl)1-(isopropylamino)diazen-1-ium-1,2-diolate]
rate of hydrolysis of 2 to 1 (porcine liver esterase; [6]): 0.067 s⁻¹ | time to complete hydrolysis of 2 to 1 (porcine liver esterase; [6]): ≤ 40 s | hydrolysis rate relative to 1 ([1]; physiological pH): an order of magnitude slower | change in sarcomere shortening relative to baseline, versus 1 (ventricular myocytes): approximately 4 fold | time to complete dissociation ([2]; 37° C., pH 11 carbonate buffer): ≤ 5 min | total amount of NO detected on hydrolysis ([3]; NO-specific chemiluminescence detector): less than 1 % of theoretical yield

Structure (SMILES): CCN(CC)[N+]([O-])=N[O-].[Na+] [DEA/NO, O^2-Sodium 1-(N,N-Diethylamino)diazen-1-ium-1,2-diolate, reference compound]
COX-2 mRNA level relative to control (COX-2 mRNA): 6.0

Structure (SMILES): CCN(CC)[N+]([O-])=NOCOC(=O)Cc1c(C)n(C(=O)c2ccc(Cl)cc2)c2ccc(OC)cc12 [DEA/NO-indomethacin, O^2-(methyl2-(1-(4-chlorobenzoyl)-5-methoxy-2-methyl-1H-indol-3-yl)acetate)-1-(N,N-Diethylamino)-diazen-1-ium-1,2-diolate]
cell membrane penetration [4]: penetrated cell membranes

Structure (SMILES): CC(C)N[N+]([O-])=NOC(=O)c1cccnc1Nc1cccc(C(F)(F)F)c1 [IPA/NO-niflumic acid, O^2-(2-(3-(trifluoromethyl)phenylamino)nicotinate)-1-(N-isopropylamino)-diazen-1-ium-1,2-diolate]
cell membrane penetration [5]: penetrated cell membranes
